# Target: α5β1 integrin (Homo sapiens, UniProt P05556+P08648)
# Experiment: IC50 for the selected compounds (assay not described)
# Sequence of α5β1 integrin (P08648 42-894 limits assumed): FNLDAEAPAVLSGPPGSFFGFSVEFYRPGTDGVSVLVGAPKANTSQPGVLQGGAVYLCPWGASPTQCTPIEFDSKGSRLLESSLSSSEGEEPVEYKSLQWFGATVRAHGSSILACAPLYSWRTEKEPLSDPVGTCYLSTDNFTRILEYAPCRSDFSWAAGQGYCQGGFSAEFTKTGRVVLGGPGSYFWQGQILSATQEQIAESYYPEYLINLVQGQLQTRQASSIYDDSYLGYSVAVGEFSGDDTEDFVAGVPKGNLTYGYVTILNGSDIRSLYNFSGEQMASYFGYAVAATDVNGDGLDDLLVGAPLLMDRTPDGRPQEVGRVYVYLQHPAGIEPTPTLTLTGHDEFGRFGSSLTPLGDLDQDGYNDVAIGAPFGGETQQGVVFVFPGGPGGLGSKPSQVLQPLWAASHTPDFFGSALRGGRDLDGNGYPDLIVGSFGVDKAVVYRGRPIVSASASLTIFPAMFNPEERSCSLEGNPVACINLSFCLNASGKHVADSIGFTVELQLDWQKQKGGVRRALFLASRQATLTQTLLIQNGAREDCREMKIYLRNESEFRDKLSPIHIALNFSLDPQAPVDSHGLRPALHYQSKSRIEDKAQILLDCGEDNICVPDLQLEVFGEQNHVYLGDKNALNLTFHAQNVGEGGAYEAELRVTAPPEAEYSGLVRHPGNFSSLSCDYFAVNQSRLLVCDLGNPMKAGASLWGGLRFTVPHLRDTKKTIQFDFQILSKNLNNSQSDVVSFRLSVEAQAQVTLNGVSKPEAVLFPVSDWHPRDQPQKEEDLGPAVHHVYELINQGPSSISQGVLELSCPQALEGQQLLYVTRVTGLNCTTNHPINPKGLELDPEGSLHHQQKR
# Sequence of α5β1 integrin (P05556 21-798): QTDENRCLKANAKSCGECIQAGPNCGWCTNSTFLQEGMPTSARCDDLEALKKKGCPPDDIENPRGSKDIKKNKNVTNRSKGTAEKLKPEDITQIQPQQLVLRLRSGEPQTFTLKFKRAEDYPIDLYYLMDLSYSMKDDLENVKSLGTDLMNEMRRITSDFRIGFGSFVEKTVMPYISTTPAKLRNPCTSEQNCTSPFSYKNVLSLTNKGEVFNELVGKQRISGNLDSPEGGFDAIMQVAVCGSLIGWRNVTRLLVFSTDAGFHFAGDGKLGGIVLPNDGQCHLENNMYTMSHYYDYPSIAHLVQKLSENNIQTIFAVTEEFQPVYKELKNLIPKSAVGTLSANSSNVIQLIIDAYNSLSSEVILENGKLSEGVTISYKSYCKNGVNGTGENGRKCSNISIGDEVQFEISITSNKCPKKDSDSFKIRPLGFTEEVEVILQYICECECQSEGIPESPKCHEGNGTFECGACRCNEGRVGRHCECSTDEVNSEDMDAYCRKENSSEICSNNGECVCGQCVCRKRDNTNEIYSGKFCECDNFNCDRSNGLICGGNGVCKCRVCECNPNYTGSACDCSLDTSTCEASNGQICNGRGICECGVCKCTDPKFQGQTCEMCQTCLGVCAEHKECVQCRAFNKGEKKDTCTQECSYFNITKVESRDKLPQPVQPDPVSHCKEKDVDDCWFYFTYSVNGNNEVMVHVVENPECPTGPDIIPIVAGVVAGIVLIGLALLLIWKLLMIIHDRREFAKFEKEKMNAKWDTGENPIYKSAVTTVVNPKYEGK
row,IC50,SMILES
1,< 1000 nM,"O=C(CNC(=O)c1cncc(NC2=NCCCN2)c1)NC[C@H](NC(=O)c1c(Cl)cc(-c2ccccc2)cc1Cl)C(=O)O [SU15210-00204-01, (S)-2-(3,5-dichlorobiphenyl-4-ylcarboxamido)-3-(2-(5-(1,4,5,6-tetrahydropyrimidin-2-ylamino)nicotinamido)acetamido)propanoic acid]"
2,< 1000 nM,"O=C(CNC(=O)c1c[nH]c(=O)c(NC2=NCCCN2)c1)NC[C@H](NC(=O)c1c(Cl)cc(-c2ccccc2)cc1Cl)C(=O)O [SU15210-00206-01, (S)-2-(3,5-dichlorobiphenyl-4-ylcarboxamido)-3-(2-(6-oxo-5-(1,4,5,6-tetrahydropyrimidin-2-ylamino)-1,6-dihydropyridine-3-carboxamido)acetamido)propanoic acid]"
